The structures appear in SMILES notation. Like-named read-outs stand apart in the source and are kept apart here.

Experiment [1] concerns the target ErbB2 kinase (Homo sapiens, UniProt P04626). Nature of the experiment: Enzymatic experiment on ErbB2 (HTRF kinEASE-TK). In kind it is biochemical. The method in brief: (§1)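 HTRF kinEASE-TK with biotinylated TK substrate in HEPES pH 7.0 buffer containing MnCl2, MgCl2 and DTT; ErbB2 at 0.06 ng/μl with 4 μM ATP, EGFR at 0.06 units/μl with 1.65 μM ATP, 30 min at room temperature after 5 min enzyme/substrate–compound preincubation. Ten-point 3-fold dilutions; Eu antibody/SA-XL665 detection, 665/620 ratio.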
Background: TR-FRET usually uses a lanthanide donor and a delayed reading to cut background.

Experiment [2] concerns the target EGFR kinase (Homo sapiens, UniProt P00533). Nature of the experiment: Enzymatic experiment on EGFR (HTRF kinEASE-TK). In kind it is biochemical. The procedure, abridged:
as §1

The test system of experiment [3] is N87. Nature of the experiment: Proliferation inhibition assay in vitro, N87 (CellTiter-Glo). It counts as cell-based. As to conditions: Homo sapiens; 72 hours; read-out: IC50(nM) cell N87. On the procedure: (§2) Proliferation Inhibition Assay In Vitro of Cell Lines
(§3) 1. Cell culture and inoculation: on the first day of the experiment, normal cultured cells were taken in the exponential growth phase, the cells were dispersed by digesting, then the cell density was adjusted to 8.8×10^4 cells/mL for BT-474 and 6.6×10^4 cells/mL for N87, 90 μl of which were inoculated to each well in a 96-well cell culture plate; after inoculation, the microplate was placed at condition of 37° C., 5% CO2 overnight. 2. Dosing to cells: on the second day of the experiment, the microplate was taken out from incubator, […], of 10× compound was separately added to each well of the microplate, 2 duplicated wells were set for each concentration, 9 dosing concentrations were set for each compound. According to different cell lines, the initial concentration of each compound was different. Upon completion of addition, the microplate was placed at condition of 37° C., 5% CO2 for 72 hours. 3. Data acquisition: the microplate was taken out from the incubator and allowed to stand at room temperature to equilibrate for 30 minutes. 100 μl CellTiter-Glo® Luminescent Cell Viability Assay reaction solution which had been equilibrated at room temperature was added to each well and the microplate was shaken at 1300 rpm for 2 minutes at room temperature. The microplate was centrifuged at 2000 rpm for 1 minute in a HERAEUS Multifuge X1R and then allowed to equilibrate at room temperature for 10 minutes. The […] signal was measured on EnVision™.
(Cellular ATP, detected with luciferase, serves as a proxy for viable cell number.)

The test system of experiment [4] is BT-474. Nature of the experiment: Proliferation inhibition assay in vitro, BT-474 (CellTiter-Glo). It counts as cell-based. As to conditions: Homo sapiens, 72 hours, read-out: IC50(nM) cell BT-474. As to the method:
as §2, §3

[5] abbreviates: ATP 4 μM, read-out: Kinase IC50 (nM) in vitro ErbB2.
[6] abbreviates: ATP 1.65 μM, read-out: Kinase IC50 (nM) in vitro EGFR.

Sequence of EGFR kinase (P00533 25-1210): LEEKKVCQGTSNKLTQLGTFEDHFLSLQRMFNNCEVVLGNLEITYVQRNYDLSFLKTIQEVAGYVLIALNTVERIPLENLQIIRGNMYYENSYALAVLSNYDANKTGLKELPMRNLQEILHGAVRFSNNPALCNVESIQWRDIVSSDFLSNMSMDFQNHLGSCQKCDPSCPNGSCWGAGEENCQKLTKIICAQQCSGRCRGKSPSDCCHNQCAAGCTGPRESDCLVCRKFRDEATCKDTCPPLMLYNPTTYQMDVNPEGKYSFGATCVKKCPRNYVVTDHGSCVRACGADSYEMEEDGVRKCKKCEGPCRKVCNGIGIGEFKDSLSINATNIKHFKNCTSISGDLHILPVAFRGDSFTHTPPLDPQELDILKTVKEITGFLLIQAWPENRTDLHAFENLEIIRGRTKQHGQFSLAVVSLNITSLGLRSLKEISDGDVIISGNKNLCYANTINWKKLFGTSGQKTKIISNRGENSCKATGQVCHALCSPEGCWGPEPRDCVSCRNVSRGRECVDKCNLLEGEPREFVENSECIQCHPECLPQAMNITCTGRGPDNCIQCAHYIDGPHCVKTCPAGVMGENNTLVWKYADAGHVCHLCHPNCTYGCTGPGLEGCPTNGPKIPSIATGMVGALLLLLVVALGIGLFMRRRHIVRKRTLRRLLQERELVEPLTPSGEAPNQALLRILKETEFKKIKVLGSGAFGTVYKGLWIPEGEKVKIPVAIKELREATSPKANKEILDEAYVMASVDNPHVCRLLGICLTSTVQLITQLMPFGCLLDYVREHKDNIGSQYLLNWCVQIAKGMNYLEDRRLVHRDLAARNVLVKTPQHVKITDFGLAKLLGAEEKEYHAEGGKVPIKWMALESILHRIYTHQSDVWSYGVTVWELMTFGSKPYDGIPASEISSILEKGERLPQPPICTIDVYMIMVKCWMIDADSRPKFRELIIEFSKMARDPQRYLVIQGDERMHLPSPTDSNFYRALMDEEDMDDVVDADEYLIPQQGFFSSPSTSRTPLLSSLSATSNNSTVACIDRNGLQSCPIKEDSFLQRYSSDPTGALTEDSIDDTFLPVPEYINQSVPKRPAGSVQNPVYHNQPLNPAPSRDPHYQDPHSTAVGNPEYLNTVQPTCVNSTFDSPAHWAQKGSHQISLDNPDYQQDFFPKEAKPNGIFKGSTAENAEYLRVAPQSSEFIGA
Sequence of ErbB2 kinase (P04626 23-1255): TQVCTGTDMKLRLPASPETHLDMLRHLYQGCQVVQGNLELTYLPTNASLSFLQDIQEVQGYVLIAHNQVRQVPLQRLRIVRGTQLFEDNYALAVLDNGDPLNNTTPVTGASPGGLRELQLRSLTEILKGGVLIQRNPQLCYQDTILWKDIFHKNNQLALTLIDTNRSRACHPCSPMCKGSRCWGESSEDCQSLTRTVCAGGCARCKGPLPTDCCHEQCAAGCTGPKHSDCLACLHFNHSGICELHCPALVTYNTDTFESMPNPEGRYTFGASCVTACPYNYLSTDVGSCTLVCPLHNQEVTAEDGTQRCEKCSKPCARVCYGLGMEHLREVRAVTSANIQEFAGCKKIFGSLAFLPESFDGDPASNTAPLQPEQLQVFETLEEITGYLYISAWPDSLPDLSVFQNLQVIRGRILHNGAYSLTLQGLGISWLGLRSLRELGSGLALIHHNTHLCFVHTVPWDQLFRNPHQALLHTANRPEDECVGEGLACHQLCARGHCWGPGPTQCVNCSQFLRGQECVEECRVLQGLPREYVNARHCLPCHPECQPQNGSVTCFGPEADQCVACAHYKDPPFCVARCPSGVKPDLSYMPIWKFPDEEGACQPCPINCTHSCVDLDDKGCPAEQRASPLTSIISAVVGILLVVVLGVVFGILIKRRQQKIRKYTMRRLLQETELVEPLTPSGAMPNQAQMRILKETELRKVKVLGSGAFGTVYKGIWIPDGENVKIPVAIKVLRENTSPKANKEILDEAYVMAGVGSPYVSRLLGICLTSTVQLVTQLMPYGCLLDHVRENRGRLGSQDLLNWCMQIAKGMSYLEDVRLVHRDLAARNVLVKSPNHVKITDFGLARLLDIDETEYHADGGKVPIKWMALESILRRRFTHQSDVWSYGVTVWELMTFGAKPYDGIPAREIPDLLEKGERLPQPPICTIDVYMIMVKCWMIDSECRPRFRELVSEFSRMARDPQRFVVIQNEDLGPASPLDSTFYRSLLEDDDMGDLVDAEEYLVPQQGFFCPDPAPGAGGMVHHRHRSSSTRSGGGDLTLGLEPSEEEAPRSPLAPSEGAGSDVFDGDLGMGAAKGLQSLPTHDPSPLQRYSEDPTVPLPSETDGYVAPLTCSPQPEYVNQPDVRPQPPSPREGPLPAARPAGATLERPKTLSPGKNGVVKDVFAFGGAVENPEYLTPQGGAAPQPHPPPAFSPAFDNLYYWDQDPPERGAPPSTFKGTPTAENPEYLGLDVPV

Usually IC50 stands for the concentration that gives 50% inhibition. For `Cc1cc(Nc2ncnc3ccc(NC4=NC5(CCOCC5)CO4)cc23)ccc1Oc1cc2nncn2cn1` [Embodiment 47, N^4-(4-([1,2,4]triazolo[4,3-c]pyrimidin-7-yloxy)-3-methylphenyl)-N^6-(3,8-dioxa-1-azaspiro[4.5]dec-1-en-2-yl)quinazoline-4,6-diamine], the IC50 turned out to be 2.6 nM in experiment [1] (setting [5]), 31.4 nM in experiment [2] (setting [6]), 68.4 nM in experiment [3] and 35 nM in experiment [4].
On the same counts, the results for `Cc1cc(Nc2ncnc3ccc(NC4=NC5(CO4)CC(F)(F)C5)cc23)ccc1Oc1cc2nncn2cn1` [Embodiment 48, N^4-(4-([1,2,4]triazolo[4,3-c]pyrimidin-7-yloxy)-3-methylphenyl)-N^6-(2,2-difluoro-7-oxa-5-azaspiro[3.4]oct-5-en-6-yl)quinazoline-4,6-diamine] are 1.3 nM, 9.4 nM, 64 nM and 42.2 nM.
On the same counts, the results for `CCNC(=O)NC/C=C/c1ccc2ncnc(Nc3ccc(Oc4cc5nncn5cn4)c(C)c3)c2c1` [Embodiment 49, (E)-1-(3-(4-((4-([1,2,4]triazolo[4,3-c]pyrimidin-7-yloxy)-3-methylphenyl)amino)quinazolin-6-yl)allyl)-3-ethylurea] are 1.85 nM, 28.1 nM, 271 nM and 33.4 nM.
On the same counts, the results for `CCNC(=O)Nc1cccc(-c2ccc3ncnc(Nc4ccc(Oc5cc6nncn6cn5)c(C)c4)c3c2)c1` [Embodiment 50, 1-(3-(4-((4-([1,2,4]triazolo[4,3-c]pyrimidin-7-yloxy)-3-methylphenyl)amino)quinazolin-6-yl)phenyl)-3-ethylurea] are 3.6 nM, 27.8 nM, 116 nM and 104 nM.
For the molecule `Cc1cc(Nc2ncnc3ccc(-c4cccc(NC(=O)/C=C/c5cccnc5)c4)cc23)ccc1Oc1cc2nncn2cn1` [Embodiment 51, (E)-N-(3-(4-((4-([1,2,4]triazolo[4,3-c]pyrimidin-7-yloxy)-3-methylphenyl)amino)quinazolin-6-yl)phenyl)-3-(pyridin-3-yl)acryiamide], the IC50 in experiment [1] (setting [5]) is 8.41 nM; in experiment [2] (setting [6]), 47.1 nM; in experiment [3], 93.7 nM; in experiment [4], 108 nM.
Take `C=CC(=O)Nc1cncc(-c2ccc3ncnc(Nc4ccc(Oc5cc6nncn6cn5)c(C)c4)c3c2)c1` [Embodiment 52, N-(5-(4-((4-([1,2,4]triazolo[4,3-c]pyrimidin-7-yloxy)-3-methylphenyl)amino)quinazolin-6-yl)pyridin-3-yl)acrylamide]: the half-inhibitory concentration (IC50) came to 2.35 nM in experiment [1] (setting [5]), 21.6 nM in experiment [2] (setting [6]), 117 nM in experiment [3] and 30.4 nM in experiment [4].
On to `C=CC(=O)NC/C=C/c1ccc2ncnc(Nc3ccc(Oc4cc5nncn5cn4)c(C)c3)c2c1` [Embodiment 53, (E)-N-(3-(4-((4-([1,2,4]triazolo[4,3-c]pyrimidin-7-yloxy)-3-methylphenyl)amino)quinazolin-6-yl)allyl)acrylamide], for which the concentration for half-maximal inhibition (IC50) in experiment [1] (setting [5]) is 3.58 nM; in experiment [2] (setting [6]), 57.9 nM; in experiment [3] it was 6.2 nM; in experiment [4], 5.9 nM.
As to `C=CC(=O)Nc1ccc(-c2ccc3ncnc(Nc4ccc(Oc5cc6nncn6cn5)c(C)c4)c3c2)cn1` [Embodiment 54, N-(5-(4-((4-([1,2,4]triazolo[4,3-c]pyrimidin-7-yloxy)-3-methylphenyl)amino)quinazolin-6-yl)pyridin-2-yl)acrylamide], the IC50 was 6.4 nM in experiment [1] (setting [5]), 370 nM in experiment [2] (setting [6]), 150 nM in experiment [3] and 32.8 nM in experiment [4].
As for `C=CC(=O)Nc1cc(-c2ccc3ncnc(Nc4ccc(Oc5cc6nncn6cn5)c(C)c4)c3c2)ccn1` [Embodiment 55, N-(4-(4-((4-([1,2,4]triazolo[4,3-c]pyrimidin-7-yloxy)-3-methylphenyl)amino)quinazolin-6-yl)pyridin-2-yl)acrylamide], the IC50 in experiment [1] (setting [5]) was found to be 1 nM; in experiment [2] (setting [6]) it was 15.9 nM; in experiment [3], 122 nM; in experiment [4] it was 28.4 nM.
Turning to `C=CC(=O)Nc1ccc(-c2ccc3ncnc(Nc4ccc(Oc5cc6nncn6cn5)c(C)c4)c3c2)c(C)n1` [Embodiment 56, N-(5-(4-((4-([1,2,4]triazolo[4,3-c]pyrimidin-7-yloxy)-3-methylphenyl)amino)quinazolin-6-yl)-6-methylpyridin-2-yl)acrylamide], the IC50 worked out at 34 nM in experiment [1] (setting [5]), 2450 nM in experiment [2] (setting [6]), 466 nM in experiment [3] and 35.4 nM in experiment [4].
As to `Cc1cc(Nc2ncnc3ccc(NC(=O)/C=C/CN(C)C)cc23)ccc1Oc1cc2nncn2cn1` [Embodiment 57, (E)-N-(4-((4-([1,2,4]triazolo[4,3-c]pyrimidin-7-yloxy)-3-methylphenyl)amino)quinazolin-6-yl)-4-(dimethylamino)-2-butenamide], the 50% inhibitory concentration (IC50) in experiment [1] (setting [5]) was determined as 1.7 nM; in experiment [2] (setting [6]) it was 2.7 nM; in experiment [3], 12.8 nM; in experiment [4], 5.6 nM.
On the same counts, the results for `Cc1cc(Nc2ncnc3ccc(NC(=O)C4CC(Br)=NO4)cc23)ccc1Oc1cc2nncn2cn1` (stereo not drawn) [Embodiment 58, N-(4-((4-([1,2,4]triazolo[4,3-c]pyrimidin-7-yloxy)-3-methylphenyl)amino)quinazolin-6-yl)-3-bromo-4,5-dihydroisoxazol-5-carboxamide] are 5.4 nM, 206 nM, 192 nM and 352 nM.
`Cc1cc(Nc2ncnc3ccc(-c4ccc(CN(C)C)o4)cc23)ccc1Oc1cc2nncn2cn1` [Embodiment 59, N-(4-([1,2,4]triazolo[4,3-c]pyrimidin-7-yloxy)-3-methylphenyl)-6-(5-((dimethylamino)methyl)furan-2-yl)-4-aminoquinazoline]: the half-maximal inhibitory concentration (IC50) in experiment [1] (setting [5]) came to 5.7 nM; in experiment [2] (setting [6]) it was 40.2 nM; in experiment [3] it was 61.1 nM; in experiment [4], 281 nM.
As for `Cc1cc(Nc2ncnc3ccc(-c4ccc(CO)o4)cc23)ccc1Oc1cc2nncn2cn1` [Embodiment 60, (5-(4-((4-([1,2,4]triazolo[4,3-c]pyrimidin-7-yloxy)-3-methylphenyl)amino)quinazolin-6-yl)furan-2-yl)methanol], the half-maximal inhibitory concentration (IC50) in experiment [1] (setting [5]) came out at 1.1 nM; in experiment [2] (setting [6]), 15.6 nM; in experiment [3], 23.4 nM; in experiment [4], 108 nM.
`Cc1cc(Nc2ncnc3ccc(-c4ccc(CN5CCN(C)CC5)o4)cc23)ccc1Oc1cc2nncn2cn1` [Embodiment 61]: the concentration for half-maximal inhibition (IC50) was 6 nM in experiment [1] (setting [5]), 44.7 nM in experiment [2] (setting [6]), 35.4 nM in experiment [3] and 48.9 nM in experiment [4].
On the same counts, the results for `Cc1cc(Nc2ncnc3ccc(-c4cc(CNCCS(C)(=O)=O)co4)cc23)ccc1Oc1cc2nncn2cn1` [Embodiment 62] are 1.5 nM, 14.2 nM, 72.4 nM and 30 nM.
For the molecule `Cc1cc(Nc2ncnc3ccc(-c4ccc(CN5CCS(=O)(=O)CC5)o4)cc23)ccc1Oc1cc2nncn2cn1` [Embodiment 63], the 50% inhibitory concentration (IC50) in experiment [1] (setting [5]) was determined as 1.8 nM; in experiment [2] (setting [6]) it was 29.5 nM; in experiment [3], 13 nM; in experiment [4] it was 12.7 nM.
As for `Cc1cc(Nc2ncnc3ccc(-c4cc(CN5CCS(=O)(=O)CC5)co4)cc23)ccc1Oc1cc2nncn2cn1` [Embodiment 64], the concentration for half-maximal inhibition (IC50) was 1.6 nM in experiment [1] (setting [5]), 29 nM in experiment [2] (setting [6]), 42.7 nM in experiment [3] and 27.6 nM in experiment [4].
For the molecule `Cc1cc(Nc2ncnc3ccc(-c4ccc(CNCCS(N)(=O)=O)o4)cc23)ccc1Oc1cc2nncn2cn1` [Embodiment 65], the IC50 in experiment [1] (setting [5]) was found to be 1 nM; in experiment [2] (setting [6]), 3.8 nM; in experiment [3] it was 63.2 nM; in experiment [4], 19.8 nM.
For the molecule `Cc1cc(Nc2ncnc3ccc(NC(=O)Oc4ccccc4)cc23)ccc1Oc1cc2nncn2cn1` [Embodiment 66], the half-maximal inhibitory concentration (IC50) in experiment [1] came out at 12.9 nM; in experiment [2] it was 567 nM; in experiment [3], 487 nM; in experiment [4] it was 275 nM.
Regarding `Cc1cc(NC(=O)Nc2ccc3ncnc(Nc4ccc(Oc5cc6nncn6cn5)c(C)c4)c3c2)no1` [Embodiment 67, 1-(4-((4-([1,2,4]triazolo[4,3-c]pyrimidin-7-yloxy)-3-methylphenyl)amino)quinazolin-6-yl)-3-(5-methylisoxazol-3-yl)urea], the IC50 stood at 3.2 nM in experiment [1] (setting [5]), 157 nM in experiment [2] (setting [6]), 264 nM in experiment [3] and 177 nM in experiment [4].

The values above are taken from US10828305B2 (SHANGHAI PHARMACEUTICALS HOLDING CO., LTD., priority 2016, dated 2020).
